The record followed here is patent US10273222B2 (CELGENE QUANTICEL RESEARCH, INC., priority 2013, dated 2019).

For one experiment, the system named is KDM5A and KDM5B. As to the kind of experiment: In vitro cell-based assay: tri-methyl H3K4 immuno-blotting in ZR-75-1 cells (cellular inhibition of KDM5A/B). Conditions: ZR-75-1 breast cancer cells, 72 hours, tri-methylated H3K4 level; read-out: IC50 ZR-75-1 cell-MOA.
In a further experiment the target is JMJD2C (Homo sapiens (Human), UniProt Q9H3R0). As to the kind of experiment: JMJD2C in vitro enzyme inhibition assay (TR-FRET). In kind it is biochemical.
JMJD2C, sequence (Q9H3R0 2-372): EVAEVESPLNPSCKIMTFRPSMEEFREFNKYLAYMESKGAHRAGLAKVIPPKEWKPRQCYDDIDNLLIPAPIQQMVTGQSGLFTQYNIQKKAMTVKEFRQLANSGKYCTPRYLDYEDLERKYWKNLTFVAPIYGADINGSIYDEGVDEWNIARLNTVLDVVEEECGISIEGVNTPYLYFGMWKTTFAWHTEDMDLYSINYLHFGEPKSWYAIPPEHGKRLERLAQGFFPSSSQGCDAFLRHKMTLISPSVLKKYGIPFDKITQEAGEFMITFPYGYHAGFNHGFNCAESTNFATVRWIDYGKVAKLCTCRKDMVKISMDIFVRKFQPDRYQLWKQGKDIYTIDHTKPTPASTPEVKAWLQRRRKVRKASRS
The target in another experiment is Jarid1A (Homo sapiens (Human), UniProt P29375). As to the kind of experiment: Jarid1A in vitro enzyme inhibition assay (TR-FRET). Type of experiment: biochemical. From the text:
The enzymatic assay of Jarid1A activity is based upon Time Resolved-Fluorescence Resonance Energy Transfer (TR-FRET) detection.

Another experiment concerns the target Jarid1B (Homo sapiens (Human), UniProt Q9UGL1). As to the kind of experiment: Jarid1B in vitro enzyme inhibition assay (TR-FRET). In kind it is biochemical. (In TR-FRET formats the signal depends on donor and acceptor labels being close together.)
A further experiment has as its target JMJD2A (Homo sapiens (Human), UniProt O75164). As to the kind of experiment: JMJD2A in vitro enzyme inhibition assay (TR-FRET). Type of experiment: biochemical.
The target of another experiment is FBXL10 (Homo sapiens (Human), UniProt Q8NHM5). The experiment can be described thus: FBXL10 in vitro enzyme inhibition assay (AlphaScreen). In kind it is biochemical. The procedure, abridged:
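AlphaScreen read-out of H3K36me1 product, detected with anti-H3K36me1 antibody plus streptavidin donor and Protein A acceptor beads (final 10 μg/ml) in 50 mM HEPES pH 7.3, 10 mM NaCl, 0.005% Brij35, 5 mM EDTA, 2 mg/ml BSA. Beads incubated 2 h to overnight at room temperature; IC50 derived from AlphaScreen signal.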

FBXL10, sequence (Q8NHM5 1-650): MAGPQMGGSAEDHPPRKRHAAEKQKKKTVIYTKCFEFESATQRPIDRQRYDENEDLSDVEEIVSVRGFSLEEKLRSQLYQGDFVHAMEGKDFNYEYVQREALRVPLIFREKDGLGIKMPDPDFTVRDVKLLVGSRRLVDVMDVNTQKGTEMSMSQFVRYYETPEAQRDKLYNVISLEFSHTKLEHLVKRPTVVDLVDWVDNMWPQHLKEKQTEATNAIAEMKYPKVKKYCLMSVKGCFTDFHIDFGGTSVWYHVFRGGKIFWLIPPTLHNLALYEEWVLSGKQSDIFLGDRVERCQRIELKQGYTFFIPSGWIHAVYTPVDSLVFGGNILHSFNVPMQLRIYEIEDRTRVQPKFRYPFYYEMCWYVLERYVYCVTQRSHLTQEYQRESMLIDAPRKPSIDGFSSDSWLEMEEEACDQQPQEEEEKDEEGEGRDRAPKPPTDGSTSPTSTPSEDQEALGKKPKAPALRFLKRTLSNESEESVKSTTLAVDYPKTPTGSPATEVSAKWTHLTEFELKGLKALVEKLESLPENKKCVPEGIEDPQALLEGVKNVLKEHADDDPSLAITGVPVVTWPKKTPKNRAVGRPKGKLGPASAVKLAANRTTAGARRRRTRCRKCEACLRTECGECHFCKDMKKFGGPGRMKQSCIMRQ
JMJD2A, sequence (O75164 1-350): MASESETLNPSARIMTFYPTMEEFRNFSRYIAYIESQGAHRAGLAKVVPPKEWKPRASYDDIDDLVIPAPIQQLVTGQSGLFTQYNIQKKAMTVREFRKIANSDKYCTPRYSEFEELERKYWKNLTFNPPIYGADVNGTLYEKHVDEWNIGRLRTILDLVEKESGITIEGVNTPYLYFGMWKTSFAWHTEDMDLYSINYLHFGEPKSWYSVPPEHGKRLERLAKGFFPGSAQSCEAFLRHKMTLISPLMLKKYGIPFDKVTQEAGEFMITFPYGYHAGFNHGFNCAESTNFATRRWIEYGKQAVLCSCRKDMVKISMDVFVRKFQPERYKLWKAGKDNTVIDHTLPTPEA
Jarid1B, sequence (Q9UGL1 2-751): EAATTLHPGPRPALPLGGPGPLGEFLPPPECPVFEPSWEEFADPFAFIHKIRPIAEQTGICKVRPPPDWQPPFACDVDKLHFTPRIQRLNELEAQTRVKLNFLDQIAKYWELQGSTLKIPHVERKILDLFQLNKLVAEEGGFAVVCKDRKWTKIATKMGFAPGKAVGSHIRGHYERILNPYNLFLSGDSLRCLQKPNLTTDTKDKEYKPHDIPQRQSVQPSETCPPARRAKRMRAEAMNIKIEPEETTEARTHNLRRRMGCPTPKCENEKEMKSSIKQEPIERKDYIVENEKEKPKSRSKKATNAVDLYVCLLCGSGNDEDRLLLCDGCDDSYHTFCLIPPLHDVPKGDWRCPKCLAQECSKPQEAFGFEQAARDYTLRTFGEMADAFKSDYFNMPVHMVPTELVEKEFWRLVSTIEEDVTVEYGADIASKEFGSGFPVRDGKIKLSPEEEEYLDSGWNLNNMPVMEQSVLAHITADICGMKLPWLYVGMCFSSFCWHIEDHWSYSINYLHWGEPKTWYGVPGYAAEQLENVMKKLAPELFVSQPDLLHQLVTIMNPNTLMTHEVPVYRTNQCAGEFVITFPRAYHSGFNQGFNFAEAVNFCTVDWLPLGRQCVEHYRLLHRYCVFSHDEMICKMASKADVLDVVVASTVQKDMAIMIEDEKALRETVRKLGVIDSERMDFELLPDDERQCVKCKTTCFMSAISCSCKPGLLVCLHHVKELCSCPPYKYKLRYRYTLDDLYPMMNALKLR
Jarid1A, sequence (P29375 1-1090): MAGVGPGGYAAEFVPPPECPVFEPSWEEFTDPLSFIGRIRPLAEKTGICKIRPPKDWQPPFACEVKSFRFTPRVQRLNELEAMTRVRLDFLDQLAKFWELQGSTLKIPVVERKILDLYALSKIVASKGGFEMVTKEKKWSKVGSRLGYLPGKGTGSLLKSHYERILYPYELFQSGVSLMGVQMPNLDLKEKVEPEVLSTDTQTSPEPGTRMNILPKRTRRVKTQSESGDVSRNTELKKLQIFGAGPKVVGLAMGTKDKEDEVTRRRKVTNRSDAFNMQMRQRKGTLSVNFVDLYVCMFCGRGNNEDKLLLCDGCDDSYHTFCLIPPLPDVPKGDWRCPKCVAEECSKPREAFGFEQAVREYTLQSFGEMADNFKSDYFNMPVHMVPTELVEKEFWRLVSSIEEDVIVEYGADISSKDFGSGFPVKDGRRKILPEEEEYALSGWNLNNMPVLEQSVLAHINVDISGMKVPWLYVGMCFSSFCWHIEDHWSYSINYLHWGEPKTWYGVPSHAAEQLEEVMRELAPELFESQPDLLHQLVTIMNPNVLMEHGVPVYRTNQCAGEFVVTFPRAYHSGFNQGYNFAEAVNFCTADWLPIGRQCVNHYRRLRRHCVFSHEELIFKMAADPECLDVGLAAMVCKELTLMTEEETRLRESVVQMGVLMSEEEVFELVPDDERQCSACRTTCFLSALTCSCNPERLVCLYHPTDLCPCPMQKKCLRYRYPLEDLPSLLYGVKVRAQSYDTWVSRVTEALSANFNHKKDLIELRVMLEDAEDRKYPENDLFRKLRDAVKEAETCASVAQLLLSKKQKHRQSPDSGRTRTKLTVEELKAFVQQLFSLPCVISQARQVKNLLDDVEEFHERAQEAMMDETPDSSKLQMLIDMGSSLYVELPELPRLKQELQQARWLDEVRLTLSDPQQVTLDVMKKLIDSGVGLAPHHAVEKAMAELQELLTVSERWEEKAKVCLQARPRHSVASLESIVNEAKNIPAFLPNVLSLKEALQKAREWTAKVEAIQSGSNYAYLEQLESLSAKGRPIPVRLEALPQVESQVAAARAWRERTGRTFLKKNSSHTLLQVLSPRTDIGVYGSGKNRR
Description for JMJD2C: This assay determines the ability of a test compound to inhibit Jarid1A, Jarid1B, JMJD2C, and JMJD2A demethylase activity. […] Baculovirus expressed JMJD2C (GenBank Accession #BC143571, AA 2-372) was purchased from BPS Bioscience (Cat#50105).
The ability of test compounds to inhibit the activity of JMJD2C was determined in 384-well plate format under the following reaction conditions: 0.3 nM JMJD2C, 300 nM H3K9me3-biotin labeled peptide (Anaspec cat #64360), 2 μM alpha-ketoglutaric acid in assay buffer of 50 mM HEPES, pH7.3, 0.005% Brij35, 0.5 mM TCEP, 0.2 mg/ml BSA, 50 μM sodium L-ascorbate, and 2 μM ammonium iron(II) sulfate. Reaction product was determined quantitatively by TR-FRET after the addition of detection reagent Phycolink Streptavidin-allophycocyanin (Prozyme) and Europium-anti-di-methylated histone H3 lysine 9 (H3K9me2) antibody (PerkinElmer) in the presence of 5 mM EDTA in LANCE detection buffer (PerkinElmer) at a final concentration of 50 nM and 1 nM, respectively.
The assay reaction was initiated by the following: 2 μl of the mixture of 900 nM H3K9me3-biotin labeled peptide and 6 μM alpha-ketoglutaric acid with 2 μl of 11-point serial diluted inhibitor in 3% DMSO were added to each well of the plate, followed by the addition of 2 μl of 0.9 nM JMJD2C to initiate the reaction. The reaction mixture was incubated at room temperature for 30 minutes, and terminated by the addition of 6 μl of 5 mM EDTA in LANCE detection buffer containing 100 nM Phycolink Streptavidin-allophycocyanin and 2 nM Europium-anti-H3K9me2 antibody. Plates were read by EnVisionMultilabel Reader in TR-FRET mode (excitation at 320 nm, emission at 615 nm and 665 nm) after 1 hour incubation at room temperature. A ratio was calculated (665/615) for each well and fitted to determine inhibition constant (IC50).
Description for KDM5A and KDM5B: This quantitative immuno-blotting assay measures the amount tri-methylated histone H3 at amino acid Lysine number 4, a specific substrate and product of the direct enzymatic activity of the histone demethylases KDM5A and KDM5B from extracts of the ZR-75-1 breast cancer cell line.
This assay is a fluorometric immunoassay for the quantification of tri-methyl H3K4 extracted from cells treated with test compound and is used as a measure of the cellular inhibition of KDM5A/B.
Extracts were prepared containing all of the cellular histone material using detergent based lysis and sonication methods. These lysates were subsequently normalized for total protein content using a colorimetric bicinchonic acid assay (MicroBCA Pierce/Thermo Scientific). Normalized cell extracts were then subjected to typical immuno-blotting procedures using NuPage reagents (Life Technologies). Electrophoretically separated histones were then transferred and immobilized using polyvinylidene difluoride membrane (Immobilon-FL Millipore). The amount of tri-methylated lysine 4 of histone H3 was detected using an antibody specific to the tri-methylated state (Cell Signaling Technologies) and quantified on an infrared imager using a densitometry software package (Odyssey CLx, Image Studio, Li-Cor). This background subtracted densitometry value was reported as a ration of the GAPDH amount for that sample and then calculated as a percent of the DMSO treated sample. The software package XL-fit (IDBS) was then used to calculate a relative IC50 value for the dilution series of a given test compound according to the equation: fit=(D+((Vmax*(x^n))/((x^n)+(Km^n)))).

In the case of `COc1ccc(-c2c(-c3cc(C(=O)O)ccn3)ncn2C)cc1` [Example 12, 2-[5-(4-methoxyphenyl)-1-methyl-1H-imidazol-4-yl]pyridine-4-carboxylic acid], the half-inhibitory concentration (IC50) with KDM5A and KDM5B was in the range of 1000 to 10000 nM.

On to `Cn1cnc(-c2cc(C(=O)O)ccn2)c1-c1ccc(N2CCCC2)cc1` [Example 18, 2-{1-methyl-5-[4-(pyrrolidin-1-yl)phenyl]-1H-imidazol-4-yl}pyridine-4-carboxylic acid], for which the 50% inhibitory concentration (IC50) against JMJD2C is 100 to 1000 nM; on Jarid1A, not above 100 nM; at Jarid1B, not above 100 nM; with KDM5A and KDM5B, 1000 to 10000 nM.

`CN(C)CCn1cnc(-c2cc(C(=O)O)ccn2)c1` [Example 40, 2-{1-[2-(dimethylamino)ethyl]-1H-imidazol-4-yl}pyridine-4-carboxylic acid]: the IC50 is not above 100 nM at JMJD2C; not above 100 nM on Jarid1A; not above 100 nM on Jarid1B; 1000 to 10000 nM in the experiment with KDM5A and KDM5B.

Turning to `CN(CCn1cnc(-c2cc(C(=O)O)ccn2)c1)Cc1cccc(F)c1` [Example 69, 2-[1-[2-[(3-fluorophenyl)methyl-methylamino]ethyl]imidazol-4-yl]pyridine-4-carboxylic acid], the IC50 on JMJD2C, against Jarid1A, on JMJD2A, against Jarid1B and on FBXL10 was not above 100 nM each time.

In the case of `CCN(CCn1cnc(-c2cc(C(=O)O)ccn2)c1)Cc1ccc(F)cc1` [Example 70, 2-[1-[2-[ethyl-[(4-fluorophenyl)methyl]amino]ethyl]imidazol-4-yl]pyridine-4-carboxylic acid], the half-inhibitory concentration (IC50) at JMJD2C, on Jarid1A, against JMJD2A, on Jarid1B and against FBXL10 was not above 100 nM each time.

On to `CN(CCn1cnc(-c2cc(C(=O)O)ccn2)c1)c1ccc(Cl)cc1` [Example 87, 2-[1-[2-(4-chloro-N-methylanilino)ethyl]imidazol-4-yl]pyridine-4-carboxylic acid], for which the IC50 was 100 to 1000 nM on JMJD2C; not above 100 nM against Jarid1A; 100 to 1000 nM at JMJD2A; not above 100 nM against Jarid1B; not above 100 nM against FBXL10.

In the case of `O=C(O)c1ccnc(-c2cn(CCN3CCCc4cc(Cl)ccc43)cn2)c1` [Example 89, 2-[1-[2-(6-chloro-3,4-dihydro-2H-quinolin-1-yl)ethyl]imidazol-4-yl]pyridine-4-carboxylic acid], the IC50 was 100 to 1000 nM on JMJD2C; not above 100 nM at Jarid1A; 100 to 1000 nM at JMJD2A; not above 100 nM at Jarid1B; not above 100 nM against FBXL10.

As to `O=C(O)c1ccnc(-c2cn(CCN3CCCc4cc(F)ccc43)cn2)c1` [Example 90, 2-[1-[2-(6-fluoro-3,4-dihydro-2H-quinolin-1-yl)ethyl]imidazol-4-yl]pyridine-4-carboxylic acid], the IC50 at JMJD2C is 100 to 1000 nM; against Jarid1A it was not above 100 nM; against JMJD2A, not above 100 nM; against Jarid1B, not above 100 nM; at FBXL10, not above 100 nM.

For `O=C(O)c1ccnc(-c2cn(CCN3CCc4cc(F)ccc43)cn2)c1` [Example 91, 2-[1-[2-(5-fluoro-2,3-dihydroindol-1-yl)ethyl]imidazol-4-yl]pyridine-4-carboxylic acid], the IC50 was 100 to 1000 nM at JMJD2C; not above 100 nM against Jarid1A; 100 to 1000 nM against JMJD2A; not above 100 nM against Jarid1B; 100 to 1000 nM against FBXL10.

In the case of `CCC(c1ccccc1)n1cnc(-c2cc(C(=O)O)ccn2)c1` (stereo not drawn) [Example 107, 2-[1-(1-phenylpropyl)imidazol-4-yl]pyridine-4-carboxylic acid], the half-inhibitory concentration (IC50) was 100 to 1000 nM on JMJD2C; not above 100 nM on Jarid1A; not above 100 nM against JMJD2A; not above 100 nM at Jarid1B; not above 100 nM on FBXL10.

`CC(C)C(c1ccccc1)n1cnc(-c2cc(C(=O)O)ccn2)c1` (stereo not drawn) [Example 108, 2-[1-(2-methyl-1-phenylpropyl)imidazol-4-yl]pyridine-4-carboxylic acid]: the IC50 on JMJD2C is 100 to 1000 nM; against Jarid1A it was not above 100 nM; against JMJD2A, 100 to 1000 nM; against Jarid1B it was not above 100 nM; on FBXL10, not above 100 nM.

As for `O=C(O)c1ccnc(-c2cn(C3CCc4ccc(F)cc43)cn2)c1` (stereo not drawn) [Example 109, 2-[1-(6-fluoro-2,3-dihydro-1H-inden-1-yl)imidazol-4-yl]pyridine-4-carboxylic acid], the half-maximal inhibitory concentration (IC50) is 1000 to 10000 nM at JMJD2C; not above 100 nM against Jarid1A; 100 to 1000 nM against JMJD2A; not above 100 nM on Jarid1B; not above 100 nM against FBXL10.

Regarding `O=C(O)c1ccnc(-c2cn(C3CCc4c(F)cccc43)cn2)c1` (stereo not drawn) [Example 110, 2-[1-(4-fluoro-2,3-dihydro-1H-inden-1-yl)imidazol-4-yl]pyridine-4-carboxylic acid], the IC50 at JMJD2C is 100 to 1000 nM; against Jarid1A, not above 100 nM; on JMJD2A, 100 to 1000 nM; at Jarid1B it was not above 100 nM; at FBXL10, not above 100 nM.

For the molecule `O=C(O)c1ccnc(-c2cn(Cc3cccc(-c4ccccc4)c3)cn2)c1` [Example 111, 2-[1-[(3-phenylphenyl)methyl]imidazol-4-yl]pyridine-4-carboxylic acid], the half-inhibitory concentration (IC50) was 1000 to 10000 nM against JMJD2C; not above 100 nM at Jarid1A; 1000 to 10000 nM against JMJD2A; not above 100 nM on Jarid1B; not above 100 nM on FBXL10.

`O=C(O)c1ccnc(-c2cn(CCc3cccc4ccccc34)cn2)c1` [Example 112, 2-[1-(2-naphthalen-1-ylethyl)imidazol-4-yl]pyridine-4-carboxylic acid]: the IC50 against JMJD2C is 100 to 1000 nM; against Jarid1A it was not above 100 nM; against JMJD2A, 100 to 1000 nM; against Jarid1B it was not above 100 nM; at FBXL10, not above 100 nM.

In the case of `O=C(O)c1ccnc(-c2cn(CC3CCCc4ccccc43)cn2)c1` (stereo not drawn) [Example 116, 2-[1-(1,2,3,4-tetrahydronaphthalen-1-ylmethyl)imidazol-4-yl]pyridine-4-carboxylic acid], the concentration for half-maximal inhibition (IC50) against JMJD2C is 100 to 1000 nM; against Jarid1A, not above 100 nM; on JMJD2A, not above 100 nM; at Jarid1B it was not above 100 nM; against FBXL10, not above 100 nM.

`Cn1cnc(-c2cc(C(=O)O)ccn2)c1-c1ccc(F)cc1OCC1CC1` [Example 120, 2-[5-[2-(cyclopropylmethoxy)-4-fluorophenyl]-1-methylimidazol-4-yl]pyridine-4-carboxylic acid]: the 50% inhibitory concentration (IC50) against JMJD2C was 1000 to 10000 nM; against Jarid1A it was 100 to 1000 nM; against JMJD2A, more than 10000 nM; against Jarid1B it was not above 100 nM; against FBXL10, not above 100 nM.

For `Clc1ccccc1Cn1cnc(-c2cc(-c3nn[nH]n3)ccn2)c1` [Example 129, 2-[1-[(2-chlorophenyl)methyl]imidazol-4-yl]-4-(2H-tetrazol-5-yl)pyridine], the concentration for half-maximal inhibition (IC50) was 1000 to 10000 nM against JMJD2C; 100 to 1000 nM at Jarid1A; more than 10000 nM on JMJD2A; not above 100 nM on Jarid1B; not above 100 nM against FBXL10.

Consider `FC(F)(F)c1ccccc1CCn1cnc(-c2cc(-c3nn[nH]n3)ccn2)c1` [Example 140, 4-(2H-tetrazol-5-yl)-2-[1-[2-[2-(trifluoromethyl)phenyl]ethyl]imidazol-4-yl]pyridine], for which the IC50 against JMJD2C was 1000 to 10000 nM; against Jarid1A, 100 to 1000 nM; on JMJD2A, more than 10000 nM; against Jarid1B, not above 100 nM; at FBXL10 it was not above 100 nM.

As for `Clc1ccccc1CCn1cnc(-c2cc(-c3nn[nH]n3)ccn2)c1` [Example 141, 2-[1-[2-(2-chlorophenyl)ethyl]imidazol-4-yl]-4-(2H-tetrazol-5-yl)pyridine], the half-inhibitory concentration (IC50) against JMJD2C was 1000 to 10000 nM; against Jarid1A, 100 to 1000 nM; against JMJD2A, more than 10000 nM; at Jarid1B, 100 to 1000 nM; on FBXL10, not above 100 nM.

Turning to `CCC(c1ccccc1)n1cnc(-c2cc(-c3nn[nH]n3)ccn2)c1` (stereo not drawn) [Example 144, 2-[1-(1-phenylpropyl)imidazol-4-yl]-4-(2H-tetrazol-5-yl)pyridine], the IC50 at JMJD2C is 1000 to 10000 nM; against Jarid1A, 100 to 1000 nM; on JMJD2A, more than 10000 nM; against Jarid1B it was not above 100 nM; at FBXL10 it was not above 100 nM.

In the case of `CC(C)C(c1ccccc1)n1cnc(-c2cc(-c3nn[nH]n3)ccn2)c1` (stereo not drawn) [Example 145, 2-[1-(2-methyl-1-phenylpropyl)imidazol-4-yl]-4-(2H-tetrazol-5-yl)pyridine], the 50% inhibitory concentration (IC50) is 1000 to 10000 nM against JMJD2C; 100 to 1000 nM at Jarid1A; more than 10000 nM against JMJD2A; 100 to 1000 nM at Jarid1B; not above 100 nM at FBXL10.

As to `Cn1cnc(-c2cc(-c3nn[nH]n3)ccn2)c1-c1ccc(F)cc1OCC1CC1` [Example 150, 2-[5-[2-(cyclopropylmethoxy)-4-fluorophenyl]-1-methylimidazol-4-yl]-4-(2H-tetrazol-5-yl)pyridine], the IC50 against JMJD2C is 1000 to 10000 nM; on Jarid1A, 100 to 1000 nM; on JMJD2A it was more than 10000 nM; on Jarid1B, not above 100 nM; at FBXL10, not above 100 nM.

Turning to `FC(F)(F)c1cccc(Cn2cnc(-c3cc(-c4nn[nH]n4)ccn3)c2)c1Cl` [Example 154, 2-[1-[[2-chloro-3-(trifluoromethyl)phenyl]methyl]imidazol-4-yl]-4-(2H-tetrazol-5-yl)pyridine], the IC50 against JMJD2C was 1000 to 10000 nM; against Jarid1A it was 100 to 1000 nM; against JMJD2A, more than 10000 nM; against Jarid1B, not above 100 nM; at FBXL10, not above 100 nM.

By IC50 is commonly meant the concentration that inhibits the measured activity by half.
